This note sets out measurements from ChEMBL document CHEMBL1201862, “PubChem BioAssay data set” (2004).

Structures are written as SMILES.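 Tested at 5 concentrations; 48 h exposure; 96-well plates; endpoints linearly interpolated, else capped at highest concentration. At the GI50, growth is halved.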 Activity calls are given as the source filed them. Cut-off read from the data, not from the text of the source: active = GI50 up to about 1.1 µM and inactive = higher.

Among the test systems are ACHN; BT-549; IGROV-1; LOX IMVI; MCF7; MDA-MB-435; NCI-H226; NCI/ADR-RES; OVCAR-5; RPMI-8226; RXF 393; SF-268; SK-MEL-28; SK-MEL-2; SNB-19; SW-620; U-251; UACC-62; UO-31; HL-60.
Holding throughout (assay): NCI anticancer screen, dose series, 48 h

Take `CN(C)CCOc1ccc(-c2c(Oc3ccccc3)c(=O)oc3ccccc23)cc1`: the GI50 with ACHN is 11.9 µM (inactive); with BT-549, 13.6 µM (inactive); in the assay with IGROV-1, 10.7 µM (inactive); in the assay with LOX IMVI, 13.1 µM (inactive); with MCF7, 4.66 µM (inactive); in the assay on MDA-MB-435 it was 4.89 µM (inactive). Further, the GI50 was 16 µM (inactive) with NCI-H226; 11.2 µM (inactive) in the assay with NCI/ADR-RES; 15 µM (inactive) with OVCAR-5; 14.1 µM (inactive) in the assay with RPMI-8226; 3.08 µM (inactive) in the assay on RXF 393; 12.8 µM (inactive) in the assay with SF-268. The GI50 in the assay with SK-MEL-28 was 12.4 µM (inactive); with SK-MEL-2, 13.4 µM (inactive); with SNB-19 it was 8.02 µM (inactive); in the assay with SW-620 it was 11.4 µM (inactive); with U-251, 4.86 µM (inactive); in the assay on UACC-62, 13.3 µM (inactive). Moreover, the GI50 in the assay with UO-31 was 7.33 µM (inactive).
Regarding `O=C(CC(C(=O)c1cccs1)c1ccsc1)c1ccco1` (configuration not stated), the GI50 is 32.3 µM (inactive) in the assay with ACHN; 15.4 µM (inactive) in the assay with HL-60; 47.6 µM (inactive) in the assay on IGROV-1; 37.3 µM (inactive) in the assay on LOX IMVI; 21.1 µM (inactive) with MCF7; 20.3 µM (inactive) in the assay on MDA-MB-435. Besides, the GI50 was 27 µM (inactive) in the assay on NCI-H226; 20.4 µM (inactive) in the assay with NCI/ADR-RES; 11.5 µM (inactive) with OVCAR-5; 73.5 µM (inactive) with RPMI-8226; 20.5 µM (inactive) in the assay with RXF 393; 27.6 µM (inactive) with SF-268. Besides, the GI50 with SK-MEL-28 was 17.1 µM (inactive); with SW-620, 30.1 µM (inactive); in the assay with U-251 it was 21.4 µM (inactive); with UACC-62, 22.8 µM (inactive); in the assay on UO-31, 21.2 µM (inactive).
Consider `COC1OC(Cn2c(C)nc(Br)c2Br)C(O)C(O)C1O` (configuration not stated), for which the GI50 with ACHN, in the assay on BT-549, with IGROV-1, in the assay on MCF7, in the assay with MDA-MB-435 and in the assay on NCI/ADR-RES was > 100 µM (inactive) each time. Further, the GI50 with OVCAR-5, in the assay with RPMI-8226, with RXF 393, in the assay on SK-MEL-28, in the assay on SK-MEL-2 and in the assay on SNB-19 was > 100 µM (inactive) throughout. Also, the GI50 with SW-620, in the assay with U-251, in the assay with UACC-62 and with UO-31 was > 100 µM (inactive) throughout.
On to `COC(=O)CCN(CCC(=O)OC)C1CC1`, for which the GI50 in the assay with ACHN, in the assay with HL-60, in the assay with IGROV-1, with LOX IMVI, with MCF7 and in the assay on MDA-MB-435 was > 100 µM (inactive) each time. Further, the GI50 in the assay on NCI-H226, in the assay on NCI/ADR-RES, with OVCAR-5, with RPMI-8226, with RXF 393 and in the assay on SF-268 was > 100 µM (inactive) each time. The GI50 was > 100 µM (inactive) with SK-MEL-28; > 100 µM (inactive) in the assay on SNB-19; > 100 µM (inactive) in the assay on SW-620; > 100 µM (inactive) in the assay on U-251; > 100 µM (inactive) in the assay with UACC-62; 76.7 µM (inactive) with UO-31.
On to `Cn1c2c3ccccc3nc-2c(O)c2ccccc21` [HYDROXYCRYPTOLEPINE], for which the GI50 in the assay on ACHN is 48.6 µM (inactive); in the assay with IGROV-1, 35.4 µM (inactive); in the assay on LOX IMVI it was > 100 µM (inactive); with MCF7, > 100 µM (inactive); in the assay on MDA-MB-435, > 100 µM (inactive); in the assay with NCI-H226, > 100 µM (inactive). Also, the GI50 with NCI/ADR-RES was > 100 µM (inactive); with OVCAR-5, > 100 µM (inactive); in the assay on RPMI-8226 it was 45.7 µM (inactive); in the assay with RXF 393 it was > 100 µM (inactive); in the assay on SF-268, 0.735 µM (active); in the assay on SK-MEL-28, 6.52 µM (inactive). For the same compound, the GI50 in the assay with SK-MEL-2, in the assay on SNB-19, with SW-620, with U-251, in the assay with UACC-62 and with UO-31 was > 100 µM (inactive) in each case.
With `COc1ccc(/C=N/n2c(Cc3ccccc3)n[nH]c2=O)cc1`, the GI50 in the assay on ACHN was > 100 µM (inactive); in the assay on BT-549, 29.1 µM (inactive); in the assay with MCF7, > 100 µM (inactive); with MDA-MB-435, > 100 µM (inactive); with NCI-H226, > 100 µM (inactive); in the assay on NCI/ADR-RES, > 100 µM (inactive). Besides, the GI50 in the assay on OVCAR-5 was > 100 µM (inactive); in the assay with RPMI-8226, > 100 µM (inactive); with SF-268 it was 42.3 µM (inactive); in the assay with SK-MEL-28 it was > 100 µM (inactive); in the assay on SK-MEL-2 it was > 100 µM (inactive); with SNB-19 it was 70.6 µM (inactive). Further, the GI50 is > 100 µM (inactive) in the assay with SW-620, 37 µM (inactive) in the assay with U-251, > 100 µM (inactive) with UACC-62 and > 100 µM (inactive) in the assay with UO-31.
`Cc1ccc2c(/C=C/c3ccc(N(C)C)cc3)ccnc2c1C`: the GI50 in the assay on ACHN is 25.8 µM (inactive); with HL-60 it was 21.2 µM (inactive); in the assay with LOX IMVI it was 28.5 µM (inactive); with MCF7, 15.7 µM (inactive); in the assay with MDA-MB-435, 4.57 µM (inactive); in the assay with NCI-H226, 30.5 µM (inactive). Besides, the GI50 was 33.2 µM (inactive) in the assay on NCI/ADR-RES; 64 µM (inactive) in the assay on OVCAR-5; 11.1 µM (inactive) with RPMI-8226; 18 µM (inactive) with RXF 393; 30.1 µM (inactive) in the assay on SF-268; 17.1 µM (inactive) with SK-MEL-28. Besides, the GI50 was > 100 µM (inactive) with SNB-19; 20.4 µM (inactive) in the assay on SW-620; 38.7 µM (inactive) in the assay with U-251; 13.4 µM (inactive) in the assay with UACC-62; 19.3 µM (inactive) with UO-31.
In the case of `O=C(CCCNC(=O)OCc1ccccc1)OCc1ccc2c(c1)C(=O)c1ccccc1C2=O`, the GI50 was > 100 µM (inactive) with ACHN; > 100 µM (inactive) with HL-60; 48.9 µM (inactive) with IGROV-1; > 100 µM (inactive) in the assay on LOX IMVI; 5.46 µM (inactive) in the assay on NCI-H226; > 100 µM (inactive) in the assay on OVCAR-5. Further, the GI50 in the assay with RPMI-8226 is > 100 µM (inactive); with RXF 393, 22.2 µM (inactive); with SF-268, 53.8 µM (inactive); in the assay on SK-MEL-28, > 100 µM (inactive); with SK-MEL-2 it was > 89.7 µM (inactive); with SNB-19 it was 51.4 µM (inactive). Also, the GI50 with SW-620 is > 100 µM (inactive); in the assay with U-251, 86.1 µM (inactive); in the assay with UACC-62, > 100 µM (inactive); with UO-31, > 100 µM (inactive).
